Experimental data taken from patent US20070270418A1, “Inhibitors of P38 and Methods of Using the Same” (priority 2003, published 2007).

biological target: T1, p38α (Homo sapiens, UniProt Q16539); test: p38 MAP Kinase assay, ATF2 phosphorylation (ELISA); assay type: biochemical; details: 40 μM ATP
T1 construct: p38 MAP Kinases are recombinant human full-length proteins with an amino-terminal GST fusion; GST (N); purchased Upstate (Charlottesville, Va.); host or cells: E. coli
Excerpt: Compounds of the invention are screened for the ability to inhibit ATF2 phosphorylation by p38 MAP Kinase in vitro. The ability of compounds to inhibit ATF2 phosphorylation in this in vitro assay is correlated with the inhibition of p38 MAP Kinase and TNFα expression in vivo, and is therefore an indicator of potential in vivo therapeutic activity (Raingeaud, J., et al, J. Biol. Chem., 270: 7420-7426, 1995, Brinkman, M. N., et al, J. Bil. Chem. 274: 30882-30886, 1999 and Fuchs, S. Y. et al, J. Biol. Chem. 275: 12560-12564, 2000).
All kinases and the substrate ATF2 are acquired from Upstate (Charlottesville, Va.). p38 MAP Kinases are recombinant human full-length proteins with an amino-terminal GST fusion, expressed in and purified from E. coli. ATF2 is a GST fusion protein containing amino acids 19-96 of human ATF2 expressed in E. coli. All proteins were aliquoted and stored at −80° C.
p38 MAP Kinase assays are performed using an assay buffer containing 25 mM HEPES, pH 7.5, 10 mM MgCl2, 2 mM DTT, 20 mM β-glycerophosphate, 0.1 mM Na3VO4, 40 μM ATP and 1.25 μM of ATF2, together with 6 ng of p38α protein, 12 ng p38β protein, 1.5 ng p38γ, or 0.4 ng JNK2α2. Compounds are serially diluted in DMSO and 2 μL of test compound at 25× final concentration is used. The vehicle control receives DMSO only. Test compounds are pre-incubated with 20 μl of enzyme in kinase buffer (25 mM HEPES, pH 7.5, 10 mM MgCl2, 2 mM DTT, 20 mM 3-glycerophosphate and 0.1 mM Na3VO4) at room temperature for 15 minutes. […] The reactions are incubated for 30 minutes at 37° C. and terminated by the addition of 18 μl of 200 mM EDTA. An ELISA method is used to measure the phosphorylation of ATF2 at Thr 69. High binding 96-well plates (Corning 3369) are coated with 50 μl of kinase reaction for 1 hour at 37° C. The coated plates are washed with 200 μl washing buffer (25 mM Tris HCl, pH 8.3, 192 mM glycine, 0.1% SDS and 0.05% Tween-20) three times. The plates are then washed three times with SuperBlock in TBS (Pierce, 37535). After blocking, plates are incubated with 50 μl of rabbit anti-phospho-ATF2 antibody (Cell Signaling, 9221 L, 1:500) for 30 minutes at 37° C. Plates are washed three times with washing buffer prior to incubation with 50 μl HRP-conjugated goat anti-rabbit antibody (Cell Signaling, 7074, 1:500) for 30 minutes at 37° C. Plates are then washed three times with washing buffer before incubation with 50 μl of Ultra TMB-ELISA (Pierce, 34028) for 8 minutes at room temperature. Finally, 50 μl of phosphoric acid (1 M) is added to stop reactions and plate absorbance is read at 450 nm on a SpectraMax 250 plate reader.

T1 sequence (Q16539 whole entry, the tested form may be a part): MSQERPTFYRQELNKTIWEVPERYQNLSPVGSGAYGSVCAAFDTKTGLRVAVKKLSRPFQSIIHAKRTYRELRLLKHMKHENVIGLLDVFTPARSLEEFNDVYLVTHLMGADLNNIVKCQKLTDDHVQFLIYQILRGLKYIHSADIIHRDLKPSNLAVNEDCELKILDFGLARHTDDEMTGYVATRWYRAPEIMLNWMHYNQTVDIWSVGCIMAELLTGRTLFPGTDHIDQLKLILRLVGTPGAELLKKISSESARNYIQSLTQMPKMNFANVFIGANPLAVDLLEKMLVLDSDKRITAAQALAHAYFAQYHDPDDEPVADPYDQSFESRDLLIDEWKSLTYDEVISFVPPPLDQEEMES

| SMILES | IC50 |
| --- | --- |
| CC(C)[C@@H](CO)Nc1nccc(-c2c(-c3ccc4c(c3)OCCO4)nc3sccn23)n1 [CCIII] | 1410 nM |
| CC(C)[C@@H](CO)Nc1nccc(-c2c(-c3ccc(C(F)(F)F)cc3)nc3sccn23)n1 [CCII] | 924 nM |
| Cc1csc2nc(-c3ccc(F)cc3)c(-c3ccnc(NC(CO)CO)n3)n12 [CCIV] | 10100 nM |
| OCC(CO)Nc1nccc(-c2c(-c3cccc(F)c3)nc3sccn23)n1 [CCVIII] | 971 nM |
| OCC(CO)Nc1nccc(-c2c(-c3ccc(F)c(F)c3)nc3sccn23)n1 [CCVI] | 609 nM |
| Cc1csc2nc(-c3ccc(F)cc3)c(-c3ccnc(N[C@H](CO)C(C)C)n3)n12 [CCV] | 3190 nM |
| Nc1cc(-c2c(-c3ccc(F)cc3)nc3sccn23)nc(NC2CC2)n1 [CCXXIII] | 2080 nM |
| Nc1cc(-c2c(-c3ccc(F)cc3)nc3sccn23)nc(NCC2CC2)n1 [CCXXIV] | 1570 nM |
| CC(C)(CO)CNc1nc(N)cc(-c2c(-c3ccc(F)cc3)nc3sccn23)n1 [CCXXIX] | 1030 nM |
| Nc1cc(-c2c(-c3ccc(F)cc3)nc3sccn23)nc(NCCc2ccncc2)n1 [CCXXVIII] | 960 nM |
| CCCNc1nc(N)cc(-c2c(-c3ccc(F)cc3)nc3sccn23)n1 [CCXXVII] | 1330 nM |
| CCOCCCNc1nc(N)cc(-c2c(-c3ccc(F)cc3)nc3sccn23)n1 [CCXXVI] | 766 nM |
| C[C@H](O)CNc1nc(N)cc(-c2c(-c3ccc(F)cc3)nc3sccn23)n1 [CCXXV] | 1050 nM |
| Nc1cc(-c2c(-c3ccc(F)cc3)nc3sccn23)nc(NC[C@H](O)c2ccccc2)n1 [CCXXX] | 2570 nM |
| Cc1ccc(-c2nc3sccn3c2-c2ccnc(NC(CO)CO)n2)cc1 [CCX] | 558 nM |
| O[C@H]1CCN(c2nccc(-c3c(-c4ccc(F)cc4)nc4occn34)n2)C1 [CII] | 927 nM |
| O[C@@H]1CCN(c2nccc(-c3c(-c4ccc(F)cc4)nc4occn34)n2)C1 [CI] | 1420 nM |
| CCOC(=O)Cc1csc2nc(-c3ccc(F)cc3)c(-c3ccnc(SC)n3)n12 [CLIV] | 1000 nM |
| CCOC(=O)Cc1csc2nc(-c3ccc(F)cc3)c(-c3ccnc(NCc4ccco4)n3)n12 [CLXIII] | 1000 nM |
| CCOC(=O)Cc1csc2nc(-c3ccc(F)cc3)c(-c3ccnc(NCC(C)C)n3)n12 [CLXII] | 1000 nM |
| CCOC(=O)Cc1csc2nc(-c3ccc(F)cc3)c(-c3ccnc(N4CCCCC4)n3)n12 [CLXIV] | 1000 nM |
| CCOC(=O)Cc1csc2nc(-c3ccc(F)cc3)c(-c3ccnc(NCC4CCCCC4)n3)n12 [CLXI] | 1000 nM |

| SMILES | IC50 |
| --- | --- |
| c1ccc(-c2nc3sccn3c2-c2ccncn2)cc1 [CLXVIII] | 1460 nM |
| CC(C)CNC(=O)Cc1csc2nc(-c3ccc(F)cc3)c(-c3ccnc(NCC(C)C)n3)n12 [CLXVII] | 1000 nM |
| O=C(Cc1csc2nc(-c3ccc(F)cc3)c(-c3ccnc(NCC4CCCCC4)n3)n12)NCC1CCCCC1 [CLXVI] | 1000 nM |
| O=C(Cc1csc2nc(-c3ccc(F)cc3)c(-c3ccnc(NCc4ccccc4)n3)n12)NCc1ccccc1 [CLXV] | 1000 nM |
| CC(C)[C@@H](Nc1nccc(-c2c(-c3ccc(F)cc3)nc3sccn23)n1)C(=O)O [CLXXIV] | 671 nM |
| CC(O)CN(CC(C)O)c1nccc(-c2c(-c3ccc(F)cc3)nc3sccn23)n1 (centres unmarked) [CLXXVIII] | 1000 nM |
| OCCN(CCO)c1nccc(-c2c(-c3ccc(F)cc3)nc3sccn23)n1 [CLXXVII] | 793 nM |
| CN(CCO)c1nccc(-c2c(-c3ccc(F)cc3)nc3sccn23)n1 [CLXXVI] | 1000 nM |
| COc1cccc(-c2nc3sccn3c2-c2ccnc(SC)n2)c1 [CLXXV] | 3390 nM |
| OCCN1CCN(c2nccc(-c3c(-c4ccc(F)cc4)nc4sccn34)n2)CC1 [CLXXXIII] | 1000 nM |
| OC1CCN(c2nccc(-c3c(-c4ccc(F)cc4)nc4sccn34)n2)CC1 [CLXXXIV] | 594 nM |
| Cc1cn2c(-c3ccnc(S(C)(=O)=O)n3)c(-c3ccc(F)cc3)nc2s1 [CLXXXVII] | 1850 nM |
| CCOC(=O)Cc1csc2nc(-c3ccc(F)cc3)c(-c3ccnc(NCc4ccccc4)n3)n12 [CLX] | 1000 nM |
| OC[C@@H](Nc1nccc(-c2c(-c3ccc(F)cc3)nc3sccn23)n1)[C@H](O)c1ccccc1 [CXCIV] | 565 nM |
| COc1cccc(-c2nc3sccn3c2-c2ccnc(NCCOCCO)n2)c1 [CXCIX] | 428 nM |
| CSc1nccc(-c2c(-c3ccc(F)cc3)nc3sc(C)cn23)n1 [CXCI] | 741 nM |
| COc1cccc(-c2nc3sccn3c2-c2ccnc(NCC(O)CO)n2)c1 (centres unmarked) [CXCVIII] | 649 nM |
| COc1cccc(-c2nc3sccn3c2-c2ccnc(N[C@H](CO)[C@H](O)c3ccccc3)n2)c1 [CXCVI] | 819 nM |
| COc1ccc(-c2nc3sccn3c2-c2ccnc(SC)n2)cc1 [CXC] | 3040 nM |
| CSc1nccc(-c2c(-c3ccc(F)cc3)nc3sccn23)n1 [CXXXIX, 6-(4-fluorophenyl)-5-(2-methylsulfanyl-pyrimidin-4-yl)-imidazo[2,1-b]thiazole] | 635 nM |
| c1ccc(-c2nc3sccn3c2-c2ccnc(N3CCCCC3)n2)cc1 [CXXXV] | 396 nM |

Compounds with a lower IC50, results first:

| IC50 | SMILES |
| --- | --- |
| 347 nM | CC(C)C[C@H](CO)Nc1nccc(-c2c(-c3ccc(F)cc3)nc3sccn23)n1 [CLXXXII] |
| 267 nM | COC(=O)C(Cc1ccccc1)Nc1nccc(-c2c(-c3ccc(F)cc3)nc3sccn23)n1 (centres unmarked) [CLXIX] |
| 228 nM | CSc1nccc(-c2c(-c3ccccc3)nc3sccn23)n1 [CXXX] |
| 213 nM | OCCN(Cc1ccccc1)c1nccc(-c2c(-c3ccc(F)cc3)nc3sccn23)n1 [CXCII] |
| 192 nM | CC(CO)(CO)Nc1nccc(-c2c(-c3ccc(F)cc3)nc3sccn23)n1 [CLXXIX] |
| 150 nM | Fc1ccc(CNc2nccc(-c3c(-c4ccccc4)nc4sccn34)n2)cc1 [CXXXVI] |
| 129 nM | Fc1ccc(-c2nc3sccn3c2-c2ccnc(N3CCOCC3)n2)cc1 [CXLVI] |
| 113 nM | c1ccc(-c2nc3sccn3c2-c2ccnc(N3CCOCC3)n2)cc1 [CXXXIV] |
| 97.4 nM | Nc1nccc(-c2c(-c3ccc(F)cc3)nc3occn23)n1 [CXXIX] |
| 91.1 nM | c1ccc(-c2nc3sccn3c2-c2ccnc(NCc3ccccn3)n2)cc1 [CLIX] |
| 87.1 nM | OCC(CO)Nc1nccc(-c2c(-c3ccc(F)cc3)nc3sccn23)n1 [CLXXXV] |
| 81.4 nM | CC(C)[C@@H](Nc1nccc(-c2c(-c3ccc(F)cc3)nc3sccn23)n1)C(=O)OC(C)(C)C [CLXXIII] |
| 81.4 nM | COc1ccc(CNc2nccc(-c3c(-c4ccccc4)nc4sccn34)n2)cc1 [CXXXIII] |
| 65.7 nM | c1ccc(-c2nc3sccn3c2-c2ccnc(NCC3CCCCC3)n2)cc1 [CXXXVII] |
| 65.5 nM | COc1ccc(CNc2nccc(-c3c(-c4ccc(F)cc4)nc4sccn34)n2)cc1 [CXLV] |
| 61.2 nM | COc1cccc(-c2nc3sccn3c2-c2ccnc(NCC(C)O)n2)c1 (centres unmarked) [CXCVII] |
| 58.6 nM | CC(C)(C)OC(=O)CNc1nccc(-c2c(-c3ccc(F)cc3)nc3sccn23)n1 [CLVI] |
| 44.7 nM | COc1cccc(-c2nc3sccn3c2-c2ccnc(NC(C)CO)n2)c1 (centres unmarked) [CXCV] |
| 28.5 nM | c1ccc(CNc2nccc(-c3c(-c4ccccc4)nc4sccn34)n2)cc1 [CXXXI] |
| 21.8 nM | OCCCNc1nccc(-c2c(-c3ccccc3)nc3sccn23)n1 [CLVIII] |
| 15.6 nM | c1ccc(-c2nc3sccn3c2-c2ccnc(NCc3ccco3)n2)cc1 [CLIII] |
| 13.4 nM | CC[C@H](C)C(Nc1nccc(-c2c(-c3ccc(F)cc3)nc3sccn23)n1)C(=O)OC (some centres unmarked) [CLXX] |
| 10.2 nM | c1ccc(-c2nc3sccn3c2-c2ccnc(NCc3cccs3)n2)cc1 [CXXXVIII] |
| 8.22 nM | Fc1ccc(-c2nc3sccn3c2-c2ccnc(NCc3ccco3)n2)cc1 [CXLIII] |
| 6.14 nM | Fc1ccc(-c2nc3sccn3c2-c2ccnc(NCc3cccs3)n2)cc1 [CLII] |
| 5.29 nM | c1ccc(-c2nc3sccn3c2-c2ccnc(NC3CC3)n2)cc1 [CLVII] |
| 4.92 nM | Fc1ccc(-c2nc3sccn3c2-c2ccnc(NCc3ccccc3)n2)cc1 [CXLI] |
| 1.97 nM | CC(C)CNc1nccc(-c2c(-c3ccc(F)cc3)nc3sccn23)n1 [CXLII] |
